Assay type in all cases: in vivo
Series [1] deals with Rhesus monkeys. Kind of series: Cardiovascular effects (mean arterial pressure, heart rate) of blocking agents in rhesus monkeys. Conditions: for change in heart rate / change in mean arterial pressure: even high dosages, FIG. 8 / FIG. 9; for physiological distress to the circulation in vivo: rhesus monkeys. As to the method: (§1) Rhesus monkeys were anesthetized with ketamine (7.5 mg/Kg) given intramuscularly or intravenously. Anesthesia was maintained with a mixture of isoflurane (1.5%), nitrous oxide (60%) and oxygen (40%). The common peroneal nerve was stimulated supramaximally with square wave pulses of 0.2 m sec duration at a rate of 0.15 Hz. Twitch contractions were recorded via the tendon of the extensor digitorum muscle.
(§2) In all animals, the trachea was intubated and ventilation was controlled at 12-15 ml/kg, 18-24 breaths per minute. A peripheral vein and artery were cannulated for drug administration and for recording of arterial pressure, respectively. In preliminary studies a neuromuscular blocking agent having one of the following structures was administered intravenously.
Rhesus monkeys were anesthetized and treated with a neuromuscular blocking agent as described in Example 1. FIGS. 8 and 9 provide mean values for the cardiovascular effects of administration of the AV002 and AV001 neuromuscular blocking agents, respectively as a function of dosage.

Series [2] concerns Rhesus monkeys. As to the kind of experiment: Potency and duration of neuromuscular blockade, twitch response in anesthetized rhesus monkeys. The following applies: for spontaneous recovery from neuromuscular blockade / duration of the neuromuscular blockade (FIG. 7): no antagonist; for effective dosage for 50% neuromuscular blockade (dose-response curve) / effective dosage for 95% neuromuscular blockade (dose-response curve): dose-response curve FIG. 3 / FIG. 10; for Potency (ED95 mg/kg) / Duration at 4X ED95 / Duration: rhesus monkeys; for Potency (ED95 mg/kg): intravenous, dose achieving 95% neuromuscular blockade; for Duration at 4X ED95: 4xED95 dosage; for Duration: from injection to 95% twitch recovery. How it is done:
as §1, §2

Series [3] has as its system Rhesus monkeys. Kind of series: Reversal of neuromuscular blockade by cysteine plus glutathione in rhesus monkeys (Example 3). The following applies: for time for reversal of the neuromuscular blockade (FIG. 5, as stated in Example 3): combination of cysteine and glutathione. How it is done: as §1, §2
In studies designed to examine the reversal of the neuromuscular blockade caused by these agents, cysteine and/or glutathione was administered to test animals at selected dosages.
Rhesus monkeys were anesthetized and treated with a neuromuscular blocking agent as described in Example 1.

In series [4] the test system is adult male rhesus monkeys. Kind of series: Reversal of AV002 0.15 mg/kg block by cysteine/glutathione or neostigmine/atropine (Example 5). The following applies: AV002 0.15 mg/kg (3XED95), spontaneous recovery. As to the method: Anesthesia was induced in adult male rhesus monkeys using 7.5 mg/kg ketamine. Tracheae were intubated using topical anesthetic. Anesthesia was maintained with isoflurane 1-2% and N2O/O2 (60%/40%). ECG, temperature, O2 saturation, and blood pressure were monitored and maintained within normal limits. Mechanomyogram (MMG) recordings were made of twitch responses from the extensor digitorum at 0.15 Hz. A control dose of AV002 (0.15 mg/kg; about 3 times the ED95) was given and animals were allowed to recover spontaneously. Another dose of 0.15 mg/kg of AV002 was given approximately 30 minutes after return of train of four (TOF) to greater than 100%. Reversal of the second dose of AV002 was attempted in four separate groups of animals with either:
1) cysteine 30 mg/kg and glutathione 30 mg/kg at 1 minute after injection of AV002,
2) cysteine 30 mg/kg and glutathione 30 mg/kg at the first sign of recovery of twitch,
3) neostigmine 0.05 mg/kg and atropine 0.03 mg/kg at 1 minute after injection of AV002, or
4) neostigmine 0.05 mg/kg and atropine 0.03 mg/kg at the first sign of recovery of twitch.
Comparative recovery intervals and total duration were analyzed using the student t-test.

The test system of a further series is neuromuscular blockade. Kind of series: Reversibility of neuromuscular blockade by cysteine-like antagonists (general statements). The following applies: general statement, no method given.
Setting [5] is: 0.1 mg/kg blocking agent, FIG. 1 / FIG. 4.

We go through six compounds from patent US8148398B2, “Intermediate duration neuromuscular blocking agents and antagonists thereof” (Cornell Research Foundation, Inc., priority 2006, dated 2012).

With `COc1cc2c(cc1OC)[C@@H](Cc1cc(OC)c(OC)c(OC)c1)[N@+](C)(CCCOC(=O)/C=C/C(=O)OCCC[N@+]1(C)CCc3cc(OC)c(OC)cc3[C@H]1Cc1cc(OC)c(OC)c(OC)c1)CC2` [AV001], in the series with Rhesus monkeys [1], the “change in heart rate” value is reported as “little or no change”, the “change in mean arterial pressure” value is recorded as “little or no change” and the “physiological distress to the circulation in vivo” value is listed as “no signs of causing physiological distress to the circulation”. Further, in the series with Rhesus monkeys [2] (setting [5]), the “spontaneous recovery from neuromuscular blockade” value (from here on “spontaneous recovery”) was “about 2800 seconds”. In the series on Rhesus monkeys [2], the “effective dosage for 50% neuromuscular blockade (dose-response curve)” value amounted to 0.027 mg/kg, the “effective dosage for 95% neuromuscular blockade (dose-response curve)” value is 0.040 mg/kg, the “Potency (ED95 mg/kg)” value is recorded as 0.04 mg/kg and the “Duration at 4X ED95” value fell in the range of 50 to 60 min. In addition, in the series on Rhesus monkeys [2], the “Duration” value was in the range of 30 to 40 min. Further, the “time to reversal of neuromuscular blockade counted from blocking agent administration” value in the series with Rhesus monkeys [3] (0.1 mg/kg, 20 mg/kg cysteine + 10 mg/kg glutathione after two minutes) was “about 475 seconds”. In addition, in the series on Rhesus monkeys [3] (3.0 mg/kg blocking agent, seconds value restated in minutes), the “recovery from neuromuscular blockade with cysteine plus glutathione, overdose” value is on record as “about 8.5 min”.

Regarding `COc1ccc(C[C@@H]2c3cc(OC)c(OC)cc3CC[N@@+]2(C)CCCOC(=O)/C=C/C(=O)OCCC[N@+]2(C)CCc3cc(OC)c(OC)cc3[C@H]2Cc2ccc(OC)c(OC)c2)cc1OC` [AV002], in the series on Rhesus monkeys [1], the “change in heart rate” value is listed as “little or no change”, the “change in mean arterial pressure” value was “little or no change” and the “physiological distress to the circulation in vivo” value was “no signs of causing physiological distress to the circulation”. In the series on Rhesus monkeys [2] (setting [5]), the “spontaneous recovery” value is on record as “about 1600 seconds”. Moreover, the “duration of the neuromuscular blockade (FIG. 7)” value in the series with Rhesus monkeys [2] (0.1 mg/kg) is “about 1766 seconds”. Also, the “spontaneous recovery” value in the series with Rhesus monkeys [2] (0.2 mg/kg blocking agent, FIG. 6) was “about 1730 seconds”. Besides, the “spontaneous recovery” value in the series on Rhesus monkeys [2] (0.2 mg/kg blocking agent, seconds value restated in minutes) is reported as “about 28.8 min”. Further, in the series on Rhesus monkeys [2] (0.2 mg/kg), the “duration of the neuromuscular blockade (FIG. 7)” value was “about 2150 seconds”. Besides, the “potency of trans isomer (AV002) compared with cis isomer (AV003)” value in the series on Rhesus monkeys [2] (comparison of ED95 values) is “five times more potent”. In the series on Rhesus monkeys [2], the “effective dosage for 50% neuromuscular blockade (dose-response curve)” value is recorded as 0.031 mg/kg, the “effective dosage for 95% neuromuscular blockade (dose-response curve)” value came out at 0.045 mg/kg, the “Potency (ED95 mg/kg)” value was 0.04 mg/kg and the “Duration at 4X ED95” value lay within 30 to 35 min. The “Duration” value with Rhesus monkeys [2] was 20 to 25 min. In series [4], the “Recovery Interval (5-95%) (minutes ± SE)” value was 13.78 ± 1.27 min and the “Total Duration (inj − 95%) (minutes ± SE)” value was 30.45 ± 2.24 min. For the same compound, the “time for reversal of the neuromuscular blockade (FIG. 5, as stated in Example 3)” value with Rhesus monkeys [3] (0.1 mg/kg) is “about 320 seconds”. Also, the “recovery from neuromuscular blockade with cysteine plus glutathione” value in the series with Rhesus monkeys [3] (0.2 mg/kg blocking agent, antagonists at 2 minutes, seconds value restated in minutes) is on record as “about 7.5 min”. In the series with Rhesus monkeys [3] (0.2 mg/kg), the “time for reversal of the neuromuscular blockade (FIG. 5, as stated in Example 3)” value is “about 670 seconds”.

Turning to `COc1ccc(C[C@H]2c3cc(OC)c(OC)cc3CC[N@@+]2(C)CCCOC(=O)/C=C/C(=O)OCCC[N@+]2(C)CCc3cc(OC)c(OC)cc3[C@@H]2Cc2ccc(OC)c(OC)c2)cc1OC` [AV003], in the series with Rhesus monkeys [2], the “Potency (ED95 mg/kg)” value was 0.20 mg/kg, the “Duration at 4X ED95” value lay in the range of 45 to 60 min and the “Duration” value lay within 25 to 40 min.

In the case of `COc1ccc(C[C@@H]2c3cc(OC)c(OC)cc3CC[N@+]2(C)CCC(=O)OCCCCCOC(=O)CC[N@@+]2(C)CCc3cc(OC)c(OC)cc3[C@H]2Cc2ccc(OC)c(OC)c2)cc1OC` [cisatracurium], the “reversal of the blockade by cysteine-like molecules (cysteine, glutathione)” value (“reversal of the blockade” below) with neuromuscular blockade was “no reversal effect whatsoever”.

On to `COc1cc(CC2c3c(cc(OC)c(OC)c3OC)CC[N+]2(C)CCCOC(=O)CCC(=O)OCCC[N+]2(C)CCc3cc(OC)c(OC)c(OC)c3C2Cc2cc(OC)c(OC)c(OC)c2)cc(OC)c1OC` (stereo not drawn) [doxacurium], for which the “reversal of the blockade” value in the series with neuromuscular blockade is “no reversal effect whatsoever”.

As for `COc1cc2c(cc1OC)[C@@H](Cc1cc(OC)c(OC)c(OC)c1)[N+](C)(CCCOC(=O)CC/C=C/CCC(=O)OCCC[N+]1(C)CCc3cc(OC)c(OC)cc3[C@H]1Cc1cc(OC)c(OC)c(OC)c1)CC2` (stereo partly drawn) [mivacurium], in the series on neuromuscular blockade, the “reversal of the blockade” value is reported as “no reversal effect whatsoever”.
